One data set has as its system HSV-1 ICP0. In kind it is cell-based, herpes simplex virus type 1. Conditions: for effect on intracellular HSV-1 ICP0 expression level: HSV-1 MOI 1, 24 h, Western blotting; for inhibition rate on intracellular HSV-1 ICP0 expression level: ICP0, 24 h. How it is done: (A) Amino acid sequence of Protopolybia-MP III. Basic residues are labeled blue, and acidic residues are labeled red. (B,C) Suppression of intracellular HSV-1 infection by Protopolybia-MP III. Cells were preincubated with Protopolybia-MP III at different concentrations or PBS for 1 h and then infected with HSV-1 at a multiplicity of infection (MOI) of 1. After 24 h, the cells were collected. Intracellular HSV-1 RNA was analyzed by qPCR (B), and intracellular HSV-1 ICP0 protein levels were analyzed by Western blotting (C). (D) Suppression of Protopolybia-MP III on extracellular HSV-1 particles. Cells were treated with Protopolybia-MP III at different concentrations or PBS for 24 h, and then the supernatant was collected and evaluated in a plaque formation assay. (E) Cytotoxicity of Protopolybia-MP III to Vero cells. Cells were treated with Protopolybia-MP III or PBS at different concentrations for 24 h, and then the cytotoxicity was determined by CCK8 assay. * p < 0.05. ** p < 0.01. *** p < 0.001.
(§1) Figure 2 Protopolybia-MP III inhibits HSV-1 replication in human cell lines. (A) Cytotoxicities of Protopolybia-MP III to A549 cells, HCEC, and SK-N-MC. Cells were treated with Protopolybia-MP III at different concentrations or PBS for 24 h, and then cytotoxicities were determined by the CCK8 assay. (B,C) Suppression of intracellular HSV-1 infection by Protopolybia-MP III in A549 cells, HCEC, and SK-N-MC. Cells were preincubated with Protopolybia-MP III at different concentrations or PBS for 1 h and then infected with HSV-1 at an MOI of 1. After 24 h, the cells were collected. Intracellular HSV-1 RNA was analyzed by qPCR (B), and intracellular HSV-1 ICP0 protein expression levels were analyzed by Western blotting (C). (D) Inhibition of Protopolybia-MP III on extracellular HSV-1 particles in A549 cells, HCEC, and SK-N-MC. Cells were treated with Protopolybia-MP III at different concentrations or PBS for 24 h, and then the supernatant was collected and evaluated in a plaque formation assay. * p < 0.05. ** p < 0.01. *** p < 0.001.
Figure 7 Antiviral activity analysis of Protopolybia-MP III mutants. (A) Amino acid sequences of Protopolybia-MP III mutants. Identical amino acids among Protopolybia-MP I, Protopolybia-MP III, and its mutants are marked in blue, and different amino acids are marked in red. (B) Suppression of Protopolybia-MP I, Protopolybia-MP III, and its mutants on intracellular HSV-1 content. Cells were preincubated with 20 μg/mL peptides or PBS for 1 h and then infected with HSV-1 at an MOI of 1. After 24 h, the cells were collected. Intracellular HSV-1 ICP0 protein levels were analyzed by Western blotting. The ratios of HSV-1 ICP0 to GAPDH were calculated by ImageJ software. (C) Inhibition of HSV-1 free virion infectivity by Protopolybia-MP I, Protopolybia-MP III, and its mutants. HSV-1 (MOI = 1) and 5 μg/mL peptides or PBS were coincubated at 37 °C for 1 h, and the mixtures were then used to infect Vero cells. After 24 h, cells were collected, and intracellular HSV-1 RNA was analyzed by qPCR. ns, no significance. * p < 0.05. ** p < 0.01. *** p < 0.001.
HSV-1 was kindly provided by Professor Zhijian Cao of Wuhan University. Cells were infected with HSV-1 at an MOI of 1 for 24 h. Then, cells were collected for qPCR, Western blotting, and immunofluorescence assays, and the extracellular supernatant was used for plaque formation assays.
Cells were collected and lysed in 1% SDS. The cell lysate was heated at 100 °C for 20 min and centrifuged at 12,000 rpm at 4 °C for 15 min, and then the supernatant was collected and assayed with a BCA Protein Quantification Kit (Vazyme). Equal amounts of protein were separated using a PAGE Gel Fast Preparation Kit (10%) (Epizyme Biotech, Wuhan, China) and transferred to nitrocellulose (NC) membranes (Millipore, Wuhan, China). […]

In the next data set the test system is A549 cells. The data set can be described thus: CCK8 cytotoxicity assay, A549 cells. In kind it is cell-based, human. Conditions: 40 μg/mL, 24 h. How it is done: as §1
Cells were seeded in a 96-well plate (7000–10,000 cells per well) and cultured at 37 °C overnight. Peptides in a series of concentrations were added to the medium, and cells were then incubated at 37 °C for 24 h. […] Finally, the absorbance was measured at 450 nm using a microplate reader (BioTek, Winooski, VT, USA).

Like-named read-outs stand apart in the source and are kept apart here. Ends that are not written are not given here.

Regarding “INWLKLGKAVIDAL-NH2 [Protopolybia-MP III]”, the “effect on intracellular HSV-1 ICP0 expression level” value in the data set with HSV-1 ICP0 (A549 cells), in the data set with HSV-1 ICP0 (HCEC) and in the data set on HSV-1 ICP0 (SK-N-MC) was “strongly inhibited” throughout. Besides, the “inhibition rate on intracellular HSV-1 ICP0 expression level” value in the data set with HSV-1 ICP0 (5 μg/mL) came out at 67%; with HSV-1 ICP0 (10 μg/mL) it was 74%; in the data set on HSV-1 ICP0 (20 μg/mL), 96%. For the same substance, the “cytotoxicity to A549 cells” value in the data set with A549 cells is listed as “almost nontoxic”.

These data come from publication PMC10976043, “Function and Mechanism of Antiviral Wasp Venom Peptide Protopolybia-MP III and Its Derivatives against HSV-1” (Toxins, 2024).
